Here are results for 3 compounds from patent publication US8389514B2, “Cyanoaminoquinolones and tetrazoloaminoquinolones as GSK-3 inhibitors” (Kyorin Pharmaceutical Co., Ltd., priority 2007, dated 2013).

For test [1], the target named is T1, recombinant full-length human GSK3β (Homo sapiens, UniProt P49841).
T1 construct: recombinant full-length human GSK3β (Upstate); purchased Upstate
The experiment in a line: GSK3β enzyme cell free luciferase-coupled kinase assay. The class given is biochemical. As to conditions: 5 μM ATP. The method, then:
All coupled-luciferase assays are performed by using a brief incubation with firefly luciferase (Promega) after completion of the kinase assay. KinaseGlo Plus is used for reading kinase reactions with ATP>10 μM, KinaseGlo for ATP<10 μM. The assay volume in a 384-well plate for the kinase reaction is 30 microliters.
10-25 ng of recombinant full-length human GSK3β (Upstate) is incubated in the presence or absence of compound at varying concentrations for 1 hour at 30 degrees Celsius in 20 mM MOPS, pH 7.0, 10 mM magnesium acetate, 0.2 mM EDTA, 2 mM EGTA, 30 mM magnesium chloride, 62.5 μM phospho-glycogen synthase peptide-2, 5 μM ATP, 10 mM β-glycerol phosphate, 1 mM sodium orthovanadate and 1 mM dithiothreitol. Proceed to KinaseGlo luciferase reaction (see below).
Following the completion of the kinase reaction an equal volume of KinaseGlo or KinaseGlo Plus luciferase reagent (Promega) is added and the luminescence read using a luminescence plate reader within 5-10 minutes. Compound activity is expressed as % inhibition relative to maximal inhibition observed at the maximal dose and IC50 values then calculated using curve fitting software (GraphPad Prizm).

Another test concerns E. coli, ATCC8739. As to the kind of experiment: Antibacterial activity (MIC), E. coli. As to conditions: Escherichia coli. In kind it is cell-based. An excerpt:
(§1) As used herein, a minimum inhibitory concentration (MIC) for bacterial growth assay is the lowest level of a compound needed to cause an inhibition to bacterial growth in culture medium. In certain embodiments, the antibacterial activity of compounds herein, measured as MIC.
(§2) In certain embodiments, GSK3 inhibitors provided herein are substantially free of antibacterial activity or having very low antibacterial activity. The antibacterial activity can be measured by methods known in the art by estimating a minimum inhibitory concentration (MIC) for test compounds. A MIC is the lowest level of a compound needed to cause an inhibition to bacterial growth in a culture medium. […] (Clinical and Laboratory Standards Institute. Methods for Dilution Antimicrobial Susceptibility Tests for Bacteria That Grow Aerobically; Approved Standard-Sixth Edition: CLSI document […]. CLSI, Wayne, Pa. (2003))
(§3) Antibacterial activity for E. coli, ATCC8739 and S. aures Smith is expressed as MIC (μM).

The test system of the next test is S. aureus Smith. The experiment in a line: Antibacterial activity (MIC), S. aureus Smith. In kind it is cell-based. The settings on record: Staphylococcus aureus.
Description: as §1, §2, §3

Each structure is given as a SMILES string.

T1 sequence (P49841 whole entry): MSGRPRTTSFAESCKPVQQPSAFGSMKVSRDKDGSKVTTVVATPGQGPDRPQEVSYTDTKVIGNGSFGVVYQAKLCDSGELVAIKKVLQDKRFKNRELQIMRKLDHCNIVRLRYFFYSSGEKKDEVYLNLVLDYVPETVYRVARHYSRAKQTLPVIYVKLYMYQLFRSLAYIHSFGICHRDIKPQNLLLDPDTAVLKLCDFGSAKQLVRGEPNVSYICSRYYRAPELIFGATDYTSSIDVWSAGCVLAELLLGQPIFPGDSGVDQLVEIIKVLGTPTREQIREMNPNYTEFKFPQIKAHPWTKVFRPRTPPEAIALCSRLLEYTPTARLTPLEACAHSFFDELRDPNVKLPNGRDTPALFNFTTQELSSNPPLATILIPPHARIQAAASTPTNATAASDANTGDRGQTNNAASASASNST

`CCN(CCCNc1c(F)c(N)c2c(=O)c(-c3nnn[nH]3)cn3c2c1OC[C@@H]3C)c1ccccc1`: the IC50 in test [1] lay within 10 to 100 nM. Regarding `C[C@H]1COc2c(NCCCc3ccccn3)c(F)c(N)c3c(=O)c(-c4nnn[nH]4)cn1c23`, the IC50 in test [1] was less than 10 nM.

As for `C[C@H]1COc2c(NCCCn3ccnc3)c(F)c(N)c3c(=O)c(-c4nnn[nH]4)cn1c23`, the MIC was greater than 257 µM in the test on E. coli, ATCC8739 and greater than 257 µM against S. aureus Smith. In test [1], the IC50 lay in the range of 10 to 100 nM.

Broadly, the IC50 is the concentration at which inhibition is half-maximal. The MIC is the smallest concentration in the dilution series that meets the test's criterion for growth inhibition.
